Usually inhibition stands for the drop in the measured response relative to a control, in per cent. As usually defined, the Ki is a measure of affinity in units of concentration, obtained from inhibition or displacement.

For assay [1], the target named is T1, Dihydrofolate reductase (Rattus norvegicus) (UniProt Q920D2).
T1 sequence (whole entry): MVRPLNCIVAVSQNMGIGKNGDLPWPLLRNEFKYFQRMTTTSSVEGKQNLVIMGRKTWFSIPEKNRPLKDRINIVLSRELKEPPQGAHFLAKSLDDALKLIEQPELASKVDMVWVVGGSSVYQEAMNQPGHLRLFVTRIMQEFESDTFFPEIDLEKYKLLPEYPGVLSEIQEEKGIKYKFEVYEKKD
The assay can be described thus: Percent inhibition against Dihydrofolate reductase of rat liver at dose 0.42 mg/kg. The format is organism-based. Also noted: dose 0.42 mg/kg.

Assay [2] deals with Escherichia coli. The assay can be described thus: (§1) Relative in vitro Antibacterial activity against Escherichia coli CN314 strain. The format is functional. Also noted: unit not given here.
For the next assay, the system named is Proteus vulgaris. Kind of assay: Relative in vitro Antibacterial activity against Proteus vulgaris CN329 strain. The format is functional. Also noted: unit not given here.
The subject of a further assay is Staphylococcus aureus. The assay can be described thus: Relative in vitro Antibacterial activity against Staphylococcus aureus CN491 strain. The format is functional. Also noted: unit not given here.
The subject of the next assay is Salmonella. The format is functional, salmonella typhosa. The arrangement: unit not given here.
Assay [3] addresses T2, Dihydrofolate reductase (Rattus norvegicus, UniProt Q920D2).
T2 sequence (Q920D2 whole entry): T1 sequence (whole entry)
Kind of assay: Binding affinity against Dihydrofolate reductase of rat liver. Conditions: read-out: I50.

Assay [4] concerns the target T3, Dihydrofolate reductase (Gallus gallus, UniProt P00378).
T3 sequence (P00378 whole entry): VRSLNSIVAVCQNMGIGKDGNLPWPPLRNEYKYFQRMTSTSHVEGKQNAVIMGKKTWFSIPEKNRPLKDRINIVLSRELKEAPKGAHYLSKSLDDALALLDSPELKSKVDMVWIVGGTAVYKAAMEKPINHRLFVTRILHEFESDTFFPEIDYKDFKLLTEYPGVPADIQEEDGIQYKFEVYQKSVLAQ
Kind of assay: Binding affinity against Dihydrofolate reductase of chicken liver. Conditions: read-out: I50.

Assay [5] concerns the target T4, Dihydrofolate reductase (Escherichia coli, UniProt P0ABQ4).
T4 sequence (P0ABQ4 whole entry): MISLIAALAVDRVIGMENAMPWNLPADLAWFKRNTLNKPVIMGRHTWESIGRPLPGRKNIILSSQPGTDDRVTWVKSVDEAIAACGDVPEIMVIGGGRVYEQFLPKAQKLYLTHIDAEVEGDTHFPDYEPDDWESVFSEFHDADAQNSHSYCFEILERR
Kind of assay: Relative Binding affinity against Dihydrofolate reductase of Escherichia coli.

The target in assay [6] is T1, Dihydrofolate reductase (Rattus norvegicus). The assay can be described thus: Percent inhibition against Dihydrofolate reductase of rat liver at dose 0.9 mg/kg. The format is organism-based. Also noted: dose 0.9 mg/kg.
Assay [7] relates to Escherichia coli. Described as §1. The format is functional. The arrangement: reference not given here.
The target in assay [8] is T3, Dihydrofolate reductase. Kind of assay: Binding affinity against Dihydrofolate reductase Inhibitor of chicken liver. Conditions: read-out: I50.
Assay [9] deals with T1, Dihydrofolate reductase (Rattus norvegicus). The assay can be described thus: Percent inhibition against Dihydrofolate reductase of rat liver at dose 1.0 mg/kg. The format is organism-based. Also noted: dose 1 mg/kg.

Bounds are passed on as bounds.

`COC(=O)COc1cc(Cc2cnc(N)nc2N)cc(OC)c1OC` registered an inhibition in [1] of 15%. In addition, the MIC was 100 in the assay with Escherichia coli [2], greater than 100 with Proteus vulgaris, 200 in the assay with Staphylococcus aureus and 1000 in the assay on Salmonella.
For `CCOC(=O)COc1c(OC)cc(Cc2cnc(N)nc2N)cc1OC`, the MIC is 100 in the assay on Escherichia coli [2], greater than 100 with Proteus vulgaris, 60 in the assay on Staphylococcus aureus and 10 with Salmonella.
The matching figures for `COc1cc(Cc2cnc(N)nc2N)cc(OC)c1OCCCCCC(=O)O`: 30, greater than 100, 6 and 30.
For the molecule `COC(=O)CCCCCOc1cc(Cc2cnc(N)nc2N)cc(OC)c1OC`, the IC50 on Dihydrofolate reductase [3] stood at 180 µM. Further, the MIC against Escherichia coli [2] was 100; against Proteus vulgaris, greater than 100; against Staphylococcus aureus it was 2; against Salmonella, 30.
As for `COc1cc(Cc2cnc(N)nc2N)cc(OC)c1OCCCC(=O)O`, the IC50 at Dihydrofolate reductase [4] came out at 350 µM; at Dihydrofolate reductase [3], 400 µM. The molecule also displayed a Ki at Dihydrofolate reductase [5] of 0.0052 µM.
Regarding `CCOC(=O)CCCOc1c(OC)cc(Cc2cnc(N)nc2N)cc1OC`, in assay [6], the inhibition stood at 17%.
Regarding `COc1cc(Cc2cnc(N)nc2N)cc(OCCCCCC(=O)O)c1OC`, the IC50 on Dihydrofolate reductase [3] is 35 µM. For the same molecule, the MIC in the assay with Escherichia coli [7] is 300; in the assay on Proteus vulgaris it was greater than 100; in the assay on Staphylococcus aureus it was 2.
As to `COC(=O)CCCCOc1cc(Cc2cnc(N)nc2N)cc(OC)c1OC`, on Dihydrofolate reductase [3], the IC50 was 130 µM. Besides, the MIC against Escherichia coli [2] is given as 1000; with Proteus vulgaris, greater than 100; in the assay on Staphylococcus aureus it was 2.
As for `COc1cc(Cc2cnc(N)nc2N)cc(OC)c1OCC(=O)O`, the MIC in the assay with Escherichia coli [2] is on record as 300; in the assay with Proteus vulgaris, greater than 100; against Staphylococcus aureus, 200; in the assay on Salmonella, 100.
The matching figures for `COC(=O)CCCCCOc1c(OC)cc(Cc2cnc(N)nc2N)cc1OC`: 1000, greater than 100, 6 and 300.
As to `COc1cc(Cc2cnc(N)nc2N)cc(OCCCC(=O)O)c1OC`, the IC50 on Dihydrofolate reductase [8] came to 22 µM; at Dihydrofolate reductase [3], 9.7 µM. Further, the figures for the MIC with Escherichia coli [7], in the assay on Proteus vulgaris and in the assay with Staphylococcus aureus were 100, greater than 100 and 20, respectively.
On to `COc1cc(Cc2cnc(N)nc2N)cc(OC)c1OC` [TRIMETHOPRIM], for which the MIC in the assay with Escherichia coli [7], with Proteus vulgaris and against Staphylococcus aureus was 1 in each case.
For `COc1cc(Cc2cnc(N)nc2N)cc(OC)c1OCCCCC(=O)O`, on Dihydrofolate reductase [3], the IC50 was 640 µM.
For the molecule `COc1cc(Cc2cnc(N)nc2N)cc(OCCC(=O)O)c1OC`, the IC50 at Dihydrofolate reductase [3] is 74 µM. The MIC in the assay with Escherichia coli [7] is 1; against Proteus vulgaris, greater than 100; against Staphylococcus aureus, 20.
Regarding `COC(=O)CCCCCCOc1cc(Cc2cnc(N)nc2N)cc(OC)c1OC`, the IC50 on Dihydrofolate reductase [3] was 110 µM. For the same molecule, the MIC in the assay with Escherichia coli [2] is given as 100; against Proteus vulgaris, greater than 50; in the assay on Staphylococcus aureus, 0.2; with Salmonella, 50.
As for `CCOC(=O)CCCOc1cc(Cc2cnc(N)nc2N)cc(OC)c1OC`, the IC50 at Dihydrofolate reductase [3] came out at 160 µM. In addition, the MIC was determined as 100 against Escherichia coli [2], 50 in the assay with Proteus vulgaris, 10 against Staphylococcus aureus and 100 against Salmonella.
Regarding `COc1cc(Cc2cnc(N)nc2N)cc(OCCCCCCC(=O)O)c1OC`, on Dihydrofolate reductase [3], the IC50 was 56 µM. In addition, the MIC is 100 against Escherichia coli [7], greater than 50 in the assay on Proteus vulgaris and 1 with Staphylococcus aureus.
Take `COC(=O)CCCCOc1c(OC)cc(Cc2cnc(N)nc2N)cc1OC`: the inhibition in assay [9] came out at 0%.
With `COc1cc(Cc2cnc(N)nc2N)cc(OCC(=O)O)c1OC`, the IC50 on Dihydrofolate reductase [3] was found to be 70 µM. Further, the MIC is 100 against Escherichia coli [7], greater than 100 in the assay with Proteus vulgaris and greater than 200 with Staphylococcus aureus.
For `COc1cc(Cc2cnc(N)nc2N)cc(OCCCCC(=O)O)c1OC`, in that order: 27 µM, 300, greater than 100 and 2.
